These results are taken from patent US20120208809A1, “9H-PYRROLO[2,3-B: 5,4-C'] DIPYRIDINE AZACARBOLINE DERIVATIVES, PREPARATION THEREOF, AND THERAPEUTIC USE THEREOF” (SANOFI, priority 2009, published 2012).

As usually defined, the IC50 is the midpoint of a concentration-inhibition curve.

Each structure is given as a SMILES string.

One assay has as its target T1, Pim-2 (Homo sapiens, UniProt Q9P1W9).
T1 construct: full-length human recombinant His6-labelled Pim-1, Pim-2 or Pim-3 protein; His6; made in house
Description: TR-FRET assay of Pim kinase activity (phosphorylation of Bad Ser112), Pim-2. It is filed as biochemical. The settings on record: ATP 40 μM, read-out: IC50 Pim2. The protocol:
(§1) In order to determine the inhibition of Pim kinase activity, the compounds of the invention are tested in accordance with a routinely-used in-vitro TR-FRET assay (“Time Resolved-Fluorescence Resonance Energy Transfer”). […] For the assay, the following reagents are used:
(§2) Pim kinase—full-length human recombinant His6-labelled Pim-1, Pim-2 or Pim-3 protein (prepared according to J. Mol. Biol. (2005) 348, 183-193); Bad—full-length human recombinant His6-labelled Bad protein (prepared according to J. Mol. Biol. (2005) 348, 183-193); α-His6-APC—mouse monoclonal antibody conjugated to allophycocyanine SureLight™ directed against the His6 label (Perkin-Elmer, No. AD0059H, Waltham, Mass., United States); α-P˜Bad-Eu—mouse monoclonal antibody (Cell Signaling Technology #9296B, Danvers, Mass., United States) directed against phosphoBad (Ser112) (7E11) labelled on request by Perkin-Elmer with the reagent LANCE™ Eu-W1024.
(§3) The assay is based on the LANCE™ technology from Perkin-Elmer: the Eu-labelled antibody binds to phospho-Ser112 and generates a TR-FRET signal by interaction with the […] antibody directed against His6, bound to the His6 label of Bad. The TR-FRET signal is detected using a SpectraMax M5 plate reader (Molecular Devices) with the following settings: λex=340 nm, λem1=615 nm, λem2=665 nm. The ratio of the fluorescence signal at 665 nm to the fluorescence signal at 615 nm is used as the signal reading for the IC50 (calculations based on the 4-parameter logistic model). The assay is performed in 384-well format; the liquid manipulations are performed using a Beckmann 3000 liquid manipulation station. The test compounds are tested at 10 concentration points in duplicate; the highest concentration of compound is typically equal to 30 μM. The ATP concentration is equal to 40 μM.
For orientation: Time-resolved FRET reads energy transfer from a long-lived donor to a nearby acceptor.

The target in another assay is PLK1 (Homo sapiens, UniProt P53350). The experiment in a line: Biochemical results, IC50 PLK1.
The next assay has as its target T2, Pim-3 (Homo sapiens, UniProt Q86V86).
T2 construct: full-length human recombinant His6-labelled Pim-1, Pim-2 or Pim-3 protein; His6; made in house
The experiment in a line: TR-FRET assay of Pim kinase activity (phosphorylation of Bad Ser112), Pim-3. It is filed as biochemical. To be noted: ATP 40 μM, read-out: IC50 Pim3. The protocol: as §1, §2, §3

Another assay deals with CDK1 (Homo sapiens, UniProt P06493). Description: Biochemical results, IC50 CDK1.
A further assay deals with T3, Pim-1 (Homo sapiens, UniProt P11309).
T3 construct: full-length human recombinant His6-labelled Pim-1, Pim-2 or Pim-3 protein; His6; made in house
The experiment in a line: TR-FRET assay of Pim kinase activity (phosphorylation of Bad Ser112), Pim-1. The format is biochemical. To be noted: ATP 40 μM, read-out: IC50 Pim1. The protocol: as §1, §2, §3

PLK1, sequence (P53350 whole entry, species assumed): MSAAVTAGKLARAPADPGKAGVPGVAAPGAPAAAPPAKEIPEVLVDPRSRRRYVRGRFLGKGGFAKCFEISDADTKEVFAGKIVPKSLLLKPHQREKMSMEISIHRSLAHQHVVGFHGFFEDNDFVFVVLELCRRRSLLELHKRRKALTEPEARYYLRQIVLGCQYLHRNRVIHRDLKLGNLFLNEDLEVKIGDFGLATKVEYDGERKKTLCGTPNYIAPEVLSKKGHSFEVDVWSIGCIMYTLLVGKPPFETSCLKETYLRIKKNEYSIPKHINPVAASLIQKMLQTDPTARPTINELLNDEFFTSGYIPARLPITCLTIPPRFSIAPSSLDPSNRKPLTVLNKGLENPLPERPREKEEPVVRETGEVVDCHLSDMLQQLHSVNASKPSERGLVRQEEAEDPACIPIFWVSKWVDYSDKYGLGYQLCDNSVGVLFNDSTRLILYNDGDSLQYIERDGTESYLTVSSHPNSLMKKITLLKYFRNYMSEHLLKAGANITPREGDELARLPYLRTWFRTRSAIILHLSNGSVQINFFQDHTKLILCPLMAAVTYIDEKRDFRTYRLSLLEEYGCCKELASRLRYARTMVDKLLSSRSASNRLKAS
T3 sequence (P11309 whole entry): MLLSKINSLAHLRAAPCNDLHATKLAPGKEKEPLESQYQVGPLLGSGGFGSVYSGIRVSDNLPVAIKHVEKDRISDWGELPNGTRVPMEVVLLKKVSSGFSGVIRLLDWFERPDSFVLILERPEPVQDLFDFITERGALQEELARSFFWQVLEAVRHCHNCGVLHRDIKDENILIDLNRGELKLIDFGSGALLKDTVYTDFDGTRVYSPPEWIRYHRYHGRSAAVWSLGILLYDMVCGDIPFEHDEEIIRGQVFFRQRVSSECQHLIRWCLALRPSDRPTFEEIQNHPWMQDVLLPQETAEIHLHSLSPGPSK
T1 sequence (Q9P1W9 whole entry): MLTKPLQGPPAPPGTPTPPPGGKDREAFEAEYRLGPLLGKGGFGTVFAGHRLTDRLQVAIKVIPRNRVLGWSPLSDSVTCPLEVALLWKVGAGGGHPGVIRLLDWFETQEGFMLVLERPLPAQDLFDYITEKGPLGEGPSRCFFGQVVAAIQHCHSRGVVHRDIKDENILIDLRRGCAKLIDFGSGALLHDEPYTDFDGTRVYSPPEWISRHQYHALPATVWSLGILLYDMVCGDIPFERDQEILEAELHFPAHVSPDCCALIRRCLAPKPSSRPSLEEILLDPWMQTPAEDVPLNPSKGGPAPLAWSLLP
CDK1, sequence (P06493 whole entry, species assumed): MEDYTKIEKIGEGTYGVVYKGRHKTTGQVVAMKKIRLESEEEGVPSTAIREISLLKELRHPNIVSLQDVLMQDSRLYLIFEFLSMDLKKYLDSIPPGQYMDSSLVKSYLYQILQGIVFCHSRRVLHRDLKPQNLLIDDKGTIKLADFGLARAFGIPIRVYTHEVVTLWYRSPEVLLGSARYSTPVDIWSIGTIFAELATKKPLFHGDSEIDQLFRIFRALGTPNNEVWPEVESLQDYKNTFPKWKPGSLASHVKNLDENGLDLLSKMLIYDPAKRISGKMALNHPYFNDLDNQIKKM
CDK1, sequence (P14635 whole entry partner, species assumed): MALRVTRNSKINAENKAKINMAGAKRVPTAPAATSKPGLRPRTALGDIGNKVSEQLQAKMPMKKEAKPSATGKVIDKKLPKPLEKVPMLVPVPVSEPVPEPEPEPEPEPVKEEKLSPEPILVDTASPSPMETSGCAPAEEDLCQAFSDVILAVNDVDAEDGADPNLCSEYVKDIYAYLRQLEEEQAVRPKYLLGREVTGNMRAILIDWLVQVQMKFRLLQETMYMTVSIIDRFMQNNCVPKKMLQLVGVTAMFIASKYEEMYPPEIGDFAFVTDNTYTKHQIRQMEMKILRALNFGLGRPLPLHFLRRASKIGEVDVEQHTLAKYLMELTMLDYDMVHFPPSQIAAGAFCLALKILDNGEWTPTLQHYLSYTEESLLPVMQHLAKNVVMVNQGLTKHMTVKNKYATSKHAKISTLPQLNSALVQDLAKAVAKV

As to `CN1CCN(NC(=O)c2ccc(-c3c(F)cnc4[nH]c5cnc(-c6cnn(C)c6)cc5c34)cc2)CC1` [Example 99, 4-[3-fluoro-6-(1-methyl-1H-pyrazol-4-yl)-9H-pyrrolo[2,3-b:5,4-c′]dipyridin-4-yl]-N-(4-methylpiperazin-1-yl)benzamide], the IC50 was 100 to 1000 nM at Pim-2; more than 5000 nM on PLK1; less than 100 nM at Pim-3; 1000 to 5000 nM at CDK1; less than 100 nM on Pim-1.

Take `O=C(NCCNc1ccccn1)c1ccc(-c2c(F)cnc3[nH]c4cnc(-c5cccnc5)cc4c23)cc1` [Example 78, 4-[3-fluoro-6-(pyridin-3-yl)-9H-pyrrolo[2,3-b:5,4-c′]dipyridin-4-yl]-N-[2-(pyridin-2-ylamino)ethyl]benzamide]: the IC50 on Pim-2 was 100 to 1000 nM; at PLK1, less than 100 nM; at Pim-3 it was less than 100 nM; on CDK1, 100 to 1000 nM; on Pim-1, less than 100 nM.

`N[C@H]1CCC[C@@H]1NC(=O)c1ccc(-c2c(F)cnc3[nH]c4cnc(-c5cccnc5)cc4c23)cc1` [Example 85, N-[(1S,2S)-2-aminocyclopentyl]-4-[3-fluoro-6-(pyridin-3-yl)-9H-pyrrolo[2,3-b:5,4-c′]dipyridin-4-yl]benzamide]: the IC50 at Pim-2, on Pim-3 and at Pim-1 was less than 100 nM in each case.

For the compound `O=C(NCCN1CCCCCC1)c1ccc(-c2c(F)cnc3[nH]c4cnc(-c5cccnc5)cc4c23)cc1` [Example 60, N-[2-(azepan-1-yl)ethyl]-4-[3-fluoro-6-(pyridin-3-yl)-9H-pyrrolo[2,3-b:5,4-c′]dipyridin-4-yl]benzamide], the IC50 is 100 to 1000 nM on Pim-2; 100 to 1000 nM at PLK1; less than 100 nM at Pim-3; 100 to 1000 nM against CDK1; less than 100 nM at Pim-1.

As for `CCN1CCC[C@H]1CNC(=O)c1ccc(-c2c(F)cnc3[nH]c4cnc(-c5cccnc5)cc4c23)cc1` [Example 53, N-{[(2S)-1-ethylpyrrolidin-2-yl]methyl}-4-[3-fluoro-6-(pyridin-3-yl)-9H-pyrrolo[2,3-b:5,4-c′]dipyridin-4-yl]benzamide], the IC50 at Pim-2 is 100 to 1000 nM; against PLK1, 100 to 1000 nM; at Pim-3 it was less than 100 nM; against CDK1 it was 1000 to 5000 nM; at Pim-1, less than 100 nM.

Regarding `CN(C)[C@H]1CCN(C(=O)c2ccc(-c3c(F)cnc4[nH]c5cnc(-c6cccnc6)cc5c34)cc2)C1` [Example 69, [(3S)-3-(dimethylamino)pyrrolidin-1-yl]{4-[3-fluoro-6-(pyridin-3-yl)-9H-pyrrolo[2,3-b:5,4-c′]dipyridin-4-yl]phenyl}methanone], the IC50 was 100 to 1000 nM on Pim-2; 100 to 1000 nM at PLK1; less than 100 nM at Pim-3; 100 to 1000 nM at CDK1; less than 100 nM at Pim-1.

With `N[C@H]1CCCC[C@@H]1NC(=O)c1ccc(-c2c(F)cnc3[nH]c4cnc(-c5cccnc5)cc4c23)cc1` [Example 84, N-[(1S,2S)-2-aminocyclohexyl]-4-[3-fluoro-6-(pyridin-3-yl)-9H-pyrrolo[2,3-b:5,4-c′]dipyridin-4-yl]benzamide], the IC50 was less than 100 nM on Pim-2; 100 to 1000 nM against PLK1; less than 100 nM at Pim-3; 100 to 1000 nM against CDK1; less than 100 nM on Pim-1.

`CN(C)C1CCCN(C(=O)c2ccc(-c3c(F)cnc4[nH]c5cnc(-c6cccnc6)cc5c34)cc2)C1` (stereo not drawn) [Example 57, [3-(dimethylamino)piperidin-1-yl]{4-[3-fluoro-6-(pyridin-3-yl)-9H-pyrrolo[2,3-b:5,4-c′]dipyridin-4-yl]phenyl}methanone]: the IC50 at Pim-2 is 1000 to 5000 nM; on PLK1, 100 to 1000 nM; at Pim-3, less than 100 nM; against CDK1 it was 100 to 1000 nM; at Pim-1, less than 100 nM.

In the case of `O=C(NCc1ncc[nH]1)c1ccc(-c2c(F)cnc3[nH]c4cnc(-c5cccnc5)cc4c23)cc1` [Example 76, 4-[3-fluoro-6-(pyridin-3-yl)-9H-pyrrolo[2,3-b:5,4-c′]dipyridin-4-yl]-N-(1H-imidazol-2-ylmethyl)benzamide], the IC50 is 100 to 1000 nM at Pim-2; less than 100 nM against PLK1; less than 100 nM at Pim-3; 100 to 1000 nM on CDK1; less than 100 nM at Pim-1.

Consider `COCCNC(=O)c1ccc(-c2c(F)cnc3[nH]c4cnc(-c5cccnc5)cc4c23)cc1` [Example 14, 4-[3-fluoro-6-(pyridin-3-yl)-9H-pyrrolo[2,3-b:5,4-c′]dipyridin-4-yl]-N-(2-methoxyethyl)benzamide], for which the IC50 is 1000 to 5000 nM at Pim-2, 100 to 1000 nM at Pim-3 and less than 100 nM at Pim-1.

`CCN(CC)CCN(C)C(=O)c1ccc(-c2c(F)cnc3[nH]c4cnc(-c5cccnc5)cc4c23)cc1` [Example 71, N-[2-(diethylamino)ethyl]-4-[3-fluoro-6-(pyridin-3-yl)-9H-pyrrolo[2,3-b:5,4-c′]dipyridin-4-yl]-N-methylbenzamide]: the IC50 on Pim-2 was 1000 to 5000 nM; against PLK1, 1000 to 5000 nM; at Pim-3, less than 100 nM; on CDK1 it was 1000 to 5000 nM; at Pim-1, less than 100 nM.

For the compound `N[C@@H]1CCCC[C@H]1NC(=O)c1ccc(-c2c(F)cnc3[nH]c4cnc(-c5cccnc5)cc4c23)cc1` [Example 83, N-[(1R,2R)-2-aminocyclohexyl]-4-[3-fluoro-6-(pyridin-3-yl)-9H-pyrrolo[2,3-b:5,4-c′]dipyridin-4-yl]benzamide], the IC50 on Pim-2, on Pim-3 and at Pim-1 was less than 100 nM throughout.

On to `CN1CCN(C(=O)c2ccc(-c3c(F)cnc4[nH]c5cnc(-c6cccnc6)cc5c34)cc2)CC1` [Example 16, {4-[3-fluoro-6-(pyridin-3-yl)-9H-pyrrolo[2,3-b:5,4-c′]dipyridin-4-yl]phenyl}(4-methylpiperazin-1-yl)methanone], for which the IC50 on Pim-2 was 1000 to 5000 nM; on Pim-3 it was 100 to 1000 nM; on Pim-1, less than 100 nM.

With `O=C(c1cccc(-c2c(F)cnc3[nH]c4cnc(-c5cccnc5)cc4c23)c1)N1CCOCC1` [Example 15, {3-[3-fluoro-6-(pyridin-3-yl)-9H-pyrrolo[2,3-b:5,4-c′]dipyridin-4-yl]phenyl}(morpholin-4-yl)methanone], the IC50 on Pim-2 is more than 5000 nM; at Pim-3, 1000 to 5000 nM; on Pim-1, 100 to 1000 nM.

In the case of `CN(C)CCNC(=O)c1ccc(-c2c(F)cnc3[nH]c4cnc(-c5cccnc5)cc4c23)cn1` [Example 112, N-[2-(dimethylamino)ethyl]-5-[3-fluoro-6-(pyridin-3-yl)-9H-pyrrolo[2,3-b:5,4-c′]dipyridin-4-yl]pyridine-2-carboxamide], the IC50 was 1000 to 5000 nM at Pim-2, 100 to 1000 nM at Pim-3 and 100 to 1000 nM on Pim-1.

Take `N[C@@H]1CCC[C@H]1NC(=O)c1ccc(-c2c(F)cnc3[nH]c4cnc(-c5cccnc5)cc4c23)cc1` [Example 86, N-[(1R,2R)-2-aminocyclopentyl]-4-[3-fluoro-6-(pyridin-3-yl)-9H-pyrrolo[2,3-b:5,4-c′]dipyridin-4-yl]benzamide]: the IC50 at Pim-2, at Pim-3 and at Pim-1 was less than 100 nM each time.

Turning to `O=C(c1ccc(-c2c(F)cnc3[nH]c4cnc(-c5cccnc5)cc4c23)cc1)N1CCOCC1` [Example 13, {4-[3-fluoro-6-(pyridin-3-yl)-9H-pyrrolo[2,3-b:5,4-c′]dipyridin-4-yl]phenyl}(morpholin-4-yl)methanone], the IC50 is 1000 to 5000 nM on Pim-2, 100 to 1000 nM on Pim-3 and less than 100 nM at Pim-1.

With `CN(C)CCNC(=O)c1ccc(-c2c(F)cnc3[nH]c4cnc(-c5cccnc5)cc4c23)cc1F` [Example 113, N-[2-(dimethylamino)ethyl]-2-fluoro-4-[3-fluoro-6-(pyridin-3-yl)-9H-pyrrolo[2,3-b:5,4-c′]dipyridin-4-yl]benzamide], the IC50 was 100 to 1000 nM at Pim-2, less than 100 nM at Pim-3 and less than 100 nM on Pim-1.

With `COCCCNC(=O)c1ccc(-c2c(F)cnc3[nH]c4cnc(-c5cccnc5)cc4c23)cc1` [Example 17, 4-[3-fluoro-6-(pyridin-3-yl)-9H-pyrrolo[2,3-b:5,4-c′]dipyridin-4-yl]-N-(3-methoxypropyl)benzamide], the IC50 on Pim-2 is 1000 to 5000 nM; at Pim-3, 100 to 1000 nM; on Pim-1 it was less than 100 nM.
